Measured values from patent US7781406B2, “Production and use of the methotrexate-albumin conjugate as an immunosuppressive agent in GVHD” (Albupharm Heidelberg GmbH & Co. KG, priority 2004, dated 2010).

Tested on: acute GVHD in F1 hybrid BN/Lew rats
Assay: GVHD animal experiment: irradiated rats after transplantation of bone marrow cells and T lymphocytes
Type: in vivo
Conditions: methotrexate-albumin 2 mg/kg i.p. day 0, 4, 8, 12, MTX at equieffective doses
Excerpt: Animal experiments: (authorization No. LVL M-V310-4/7221.3-1.2-015/03 Landesveterinäramt Mecklenburg-Vorpommern Rostock)
Dr. M. Freund in Rostock University clinic under the direction of PD Dr G. Hartung and Dr D. Wolff. These entailed 20 female F1 hybrid BN/Lew rats receiving whole-body irradiation with 7.5 Gy (n=10) or 9 Gy (n=10) and then transplantation of 40 million bone marrow cells and 15 million T lymphocytes from female Lew rats.

CN(Cc1cnc2nc(N)nc(N)c2n1)c1ccc(C(=O)N[C@@H](CCC(=O)O)C(=O)O)cc1 [MTX, 4-amino-4-deoxy-10-methylfolic acid]
side effects: distinct side effect
